From PubChem BioAssay AID2060891 (Molecular Pharmacology Branch, DTP, NCI, 2025)
pIC50: −log10 of the molar value.

Tested on: K98450-129-R-PDC complex spheroid growth, percent test/control
Assay: Anticancer human tumor K98450-129-R-PDC patient-derived colon adenocarcinoma cell line growth inhibition [RAS]
Conditions: for pIC50: curve of first compound; for viability, T/C: stronger effect = lower value
Procedure, shortened: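 Multi-cell-type spheroids: tumor cells plus HUVEC endothelial cells and mesenchymal stem cells. RAS-pathway inhibitors were combined with targeted agents, each dosed in half-log steps down from clinical Cmax, or from 10 microM when Cmax was unknown.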

[1] = second compound 0.000949 µM, first compound 0.0316 µM
[2] = second compound 0.000949 µM, first compound 0.1 µM
[3] = second compound 0.000949 µM, first compound 0.316 µM
[4] = second compound 0.000949 µM, first compound 1 µM
[5] = second compound 0.000949 µM, first compound 3.16 µM
[6] = second compound 0.000949 µM, first compound 10 µM
[7] = second compound 0.003 µM, first compound 0.0316 µM
[8] = second compound 0.003 µM, first compound 0.1 µM
[9] = second compound 0.003 µM, first compound 0.316 µM
[10] = second compound 0.003 µM, first compound 1 µM
[11] = second compound 0.003 µM, first compound 3.16 µM
[12] = second compound 0.003 µM, first compound 10 µM
[13] = second compound 0.00949 µM, first compound 0.0316 µM
[14] = second compound 0.00949 µM, first compound 0.1 µM
[15] = second compound 0.00949 µM, first compound 0.316 µM
[16] = second compound 0.00949 µM, first compound 1 µM
[17] = second compound 0.00949 µM, first compound 3.16 µM
[18] = second compound 0.00949 µM, first compound 10 µM
[19] = second compound 0.03 µM, first compound 0.0316 µM
[20] = second compound 0.03 µM, first compound 0.1 µM
[21] = second compound 0.03 µM, first compound 0.316 µM
[22] = second compound 0.03 µM, first compound 1 µM
[23] = second compound 0.03 µM, first compound 3.16 µM
[24] = second compound 0.03 µM, first compound 10 µM
[25] = second compound 0.0949 µM, first compound 0.0316 µM
[26] = second compound 0.0949 µM, first compound 0.1 µM
[27] = second compound 0.0949 µM, first compound 0.316 µM
[28] = second compound 0.0949 µM, first compound 1 µM
[29] = second compound 0.0949 µM, first compound 3.16 µM
[30] = second compound 0.0949 µM, first compound 10 µM
[31] = second compound 0.3 µM, first compound 0.0316 µM
[32] = second compound 0.3 µM, first compound 0.1 µM
[33] = second compound 0.3 µM, first compound 0.316 µM
[34] = second compound 0.3 µM, first compound 1 µM
[35] = second compound 0.3 µM, first compound 3.16 µM
[36] = second compound 0.3 µM, first compound 10 µM
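Further: spheroids exposed to agents for seven days before the viability readout.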
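Wherever viability, T/C is given: luminescence used as a proxy for viable cell amount.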

Structure (SMILES): CCC(CC)c1cc(NC2CCC(N)C2)n2nccc2n1 (stereo unspecified) + CCn1c(-c2cc(N3CCN(C)CC3)cnc2C(C)OC)c2c3cc(ccc31)-c1csc(n1)CC(NC(=O)C1CC1C)C(=O)N1CCCC(N1)C(=O)OCC(C)(C)C2
- pIC50 (second compound 0.000949 µM): 5.39
- pIC50 (second compound 0.003 µM): 5.43
- pIC50 (second compound 0.00949 µM): 5.63
- pIC50 (second compound 0.03 µM): 6.05
- pIC50 (second compound 0.0949 µM): > 7.50
- pIC50 (second compound 0.3 µM): > 7.50
- viability, T/C [1]: 97.9%
- viability, T/C [2]: 88%
- viability, T/C [3]: 95.7%
- viability, T/C [4]: 65.1%
- viability, T/C [5]: 68.5%
- viability, T/C [6]: 16.4%
- viability, T/C [7]: 91.7%
- viability, T/C [8]: 83.2%
- viability, T/C [9]: 75.7%
- viability, T/C [10]: 66.3%
- viability, T/C [11]: 63.3%
- viability, T/C [12]: 13.3%
- viability, T/C [13]: 81.2%
- viability, T/C [14]: 60.9%
- viability, T/C [15]: 61%
- viability, T/C [16]: 62.7%
- viability, T/C [17]: 48.6%
- viability, T/C [18]: 12.9%
- viability, T/C [19]: 57.4%
- viability, T/C [20]: 44.2%
- viability, T/C [21]: 51.2%
- viability, T/C [22]: 49.9%
- viability, T/C [23]: 18.6%
- viability, T/C [24]: 12.2%
- viability, T/C [25]: 23.2%
- viability, T/C [26]: 20.8%
- viability, T/C [27]: 20.7%
- viability, T/C [28]: 17%
- viability, T/C [29]: 5.39%
- viability, T/C [30]: 10.7%
- viability, T/C [31]: 12.3%
- viability, T/C [32]: 13%
- viability, T/C [33]: 11.2%
- viability, T/C [34]: 11.6%
- viability, T/C [35]: 3.99%
- viability, T/C [36]: 12.9%

Structure (SMILES): Cc1nc(N2CCC3(CC2)COC(C)C3N)c(CO)nc1Sc1ccnc(N)c1Cl (stereo unspecified) + CCn1c(-c2cc(N3CCN(C)CC3)cnc2C(C)OC)c2c3cc(ccc31)-c1csc(n1)CC(NC(=O)C1CC1C)C(=O)N1CCCC(N1)C(=O)OCC(C)(C)C2
- pIC50 (second compound 0.000949 µM): 5.85
- pIC50 (second compound 0.003 µM): 6.19
- pIC50 (second compound 0.00949 µM): 6.65
- pIC50 (second compound 0.03 µM): > 7.50
- pIC50 (second compound 0.0949 µM): > 7.50
- pIC50 (second compound 0.3 µM): > 7.50
- viability, T/C [1]: 99.3%
- viability, T/C [2]: 71.3%
- viability, T/C [3]: 80.2%
- viability, T/C [4]: 55.4%
- viability, T/C [5]: 35.8%
- viability, T/C [6]: 16.7%
- viability, T/C [7]: 89%
- viability, T/C [8]: 64.3%
- viability, T/C [9]: 61.8%
- viability, T/C [10]: 51.8%
- viability, T/C [11]: 22%
- viability, T/C [12]: 11%
- viability, T/C [13]: 64.3%
- viability, T/C [14]: 53.4%
- viability, T/C [15]: 48.2%
- viability, T/C [16]: 19.5%
- viability, T/C [17]: 8.78%
- viability, T/C [18]: 7.55%
- viability, T/C [19]: 38.6%
- viability, T/C [20]: 39.2%
- viability, T/C [21]: 14.5%
- viability, T/C [22]: 8.49%
- viability, T/C [23]: 8.08%
- viability, T/C [24]: 6.16%
- viability, T/C [25]: 15.2%
- viability, T/C [26]: 13.1%
- viability, T/C [27]: 10.9%
- viability, T/C [28]: 9.07%
- viability, T/C [29]: 6.17%
- viability, T/C [30]: 4%
- viability, T/C [31]: 10.7%
- viability, T/C [32]: 11.6%
- viability, T/C [33]: 9.12%
- viability, T/C [34]: 7.56%
- viability, T/C [35]: 6.68%
- viability, T/C [36]: 5.63%

Structure (SMILES): NC1c2ccccc2OC12CCN(c1cnc3c(N4CCCc5ncccc54)n[nH]c3n1)CC2 (stereo unspecified) + CCn1c(-c2cc(N3CCN(C)CC3)cnc2C(C)OC)c2c3cc(ccc31)-c1csc(n1)CC(NC(=O)C1CC1C)C(=O)N1CCCC(N1)C(=O)OCC(C)(C)C2
- pIC50 (second compound 0.000949 µM): 6.94
- pIC50 (second compound 0.003 µM): 7.20
- pIC50 (second compound 0.00949 µM): > 7.50
- pIC50 (second compound 0.03 µM): > 7.50
- pIC50 (second compound 0.0949 µM): > 7.50
- pIC50 (second compound 0.3 µM): > 7.50
- viability, T/C [1]: 85.1%
- viability, T/C [2]: 54.5%
- viability, T/C [3]: 20.4%
- viability, T/C [4]: 8.29%
- viability, T/C [5]: 8.32%
- viability, T/C [6]: 8.57%
- viability, T/C [7]: 69.2%
- viability, T/C [8]: 37.2%
- viability, T/C [9]: 8.71%
- viability, T/C [10]: 5.81%
- viability, T/C [11]: 5.89%
- viability, T/C [12]: 8.17%
- viability, T/C [13]: 44.1%
- viability, T/C [14]: 11.7%
- viability, T/C [15]: 6.79%
- viability, T/C [16]: 5.19%
- viability, T/C [17]: 5.86%
- viability, T/C [18]: 7.32%
- viability, T/C [19]: 15.4%
- viability, T/C [20]: 9.39%
- viability, T/C [21]: 6.76%
- viability, T/C [22]: 6.09%
- viability, T/C [23]: 6.31%
- viability, T/C [24]: 7.21%
- viability, T/C [25]: 10.1%
- viability, T/C [26]: 7.59%
- viability, T/C [27]: 5.43%
- viability, T/C [28]: 4.79%
- viability, T/C [29]: 4.55%
- viability, T/C [30]: 7.03%
- viability, T/C [31]: 9.29%
- viability, T/C [32]: 7.37%
- viability, T/C [33]: 5.01%
- viability, T/C [34]: 4.13%
- viability, T/C [35]: 4.98%
- viability, T/C [36]: 5.88%
